Source: patent US12371428B2 (Exelixis, Inc., priority 2019, dated 2025)
Structures can show the parent of a compound that is named as a salt. Where two headings read alike, the source gives them in different places.

Columns and labels:
[1] = biological target: Mer (phospho-Mer, MERTK-transfected 293A cells) (Homo sapiens (Human), UniProt Q12866); test: Mer autophosphorylation ELISA in transient transfected 293A cells (Example H); format: cell-based; settings: cellular activity; Mer autophosphorylation ELISA in transient transfected 293A cells
Sequence of Mer (phospho-Mer, MERTK-transfected 293A cells) (Q12866 21-999): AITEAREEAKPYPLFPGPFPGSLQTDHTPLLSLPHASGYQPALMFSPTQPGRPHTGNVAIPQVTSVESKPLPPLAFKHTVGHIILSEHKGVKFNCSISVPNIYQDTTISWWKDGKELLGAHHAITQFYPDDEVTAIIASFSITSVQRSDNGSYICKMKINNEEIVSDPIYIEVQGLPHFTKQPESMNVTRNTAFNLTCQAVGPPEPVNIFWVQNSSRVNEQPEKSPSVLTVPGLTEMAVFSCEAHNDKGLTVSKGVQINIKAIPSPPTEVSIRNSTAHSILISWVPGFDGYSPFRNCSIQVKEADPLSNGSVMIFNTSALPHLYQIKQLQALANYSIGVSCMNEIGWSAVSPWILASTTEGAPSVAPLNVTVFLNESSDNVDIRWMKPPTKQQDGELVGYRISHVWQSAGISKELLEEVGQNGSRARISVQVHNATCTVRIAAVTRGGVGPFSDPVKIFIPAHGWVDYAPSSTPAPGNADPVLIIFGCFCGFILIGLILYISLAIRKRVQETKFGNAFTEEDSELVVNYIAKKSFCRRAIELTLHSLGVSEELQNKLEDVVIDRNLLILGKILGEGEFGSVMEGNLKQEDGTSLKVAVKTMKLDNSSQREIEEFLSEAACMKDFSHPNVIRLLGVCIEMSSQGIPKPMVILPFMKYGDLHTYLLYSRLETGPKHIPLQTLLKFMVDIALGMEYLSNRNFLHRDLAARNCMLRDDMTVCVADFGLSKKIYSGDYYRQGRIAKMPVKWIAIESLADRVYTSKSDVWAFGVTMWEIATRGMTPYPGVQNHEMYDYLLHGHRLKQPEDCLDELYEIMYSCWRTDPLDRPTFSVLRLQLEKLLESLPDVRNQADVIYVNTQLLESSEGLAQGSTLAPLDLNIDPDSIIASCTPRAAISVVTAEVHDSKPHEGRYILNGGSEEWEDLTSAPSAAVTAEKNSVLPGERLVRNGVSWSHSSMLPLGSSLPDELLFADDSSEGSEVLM
Summary of the method: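 IC50 from phospho-Mer ELISA of MERTK-transfected 293A cell lysates after 1 h treatment with serially diluted compound in serum-free medium.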

[2] = biological target: Human MET (residues 956-1390) (Homo sapiens (Human), UniProt P08581); test: Human Met kinase assay, HTRF KinEase (Example D-2); format: biochemical; settings: read-out: c-Met IC50
Sequence of Human MET (residues 956-1390) (P08581 956-1390): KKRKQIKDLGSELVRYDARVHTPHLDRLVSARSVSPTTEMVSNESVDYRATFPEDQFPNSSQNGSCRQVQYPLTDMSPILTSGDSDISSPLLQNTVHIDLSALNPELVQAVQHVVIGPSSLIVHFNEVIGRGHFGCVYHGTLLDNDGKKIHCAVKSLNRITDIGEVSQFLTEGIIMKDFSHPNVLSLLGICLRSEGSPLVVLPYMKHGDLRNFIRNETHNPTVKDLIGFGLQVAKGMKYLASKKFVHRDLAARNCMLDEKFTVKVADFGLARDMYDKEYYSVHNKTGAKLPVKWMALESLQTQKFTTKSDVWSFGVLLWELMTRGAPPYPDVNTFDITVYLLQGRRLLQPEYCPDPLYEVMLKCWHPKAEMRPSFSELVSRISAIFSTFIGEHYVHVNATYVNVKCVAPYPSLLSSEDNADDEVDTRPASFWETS
Summary of the method: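 MET kinase domain (956-1390), 0.1 ng/well, in buffer with 5 mM MgCl2, 1 mM DTT and 1 mM MnCl2, phosphorylated a biotinylated peptide at ATP Km for 40 min at RT; 10 concentrations, 3% DMSO final. EDTA-stopped HTRF read after 60 min; IC50 from a 4-parameter logistic fit.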

[3] = biological target: Human MER (residues 528-999) (Homo sapiens (Human), UniProt Q12866); test: Human Mer kinase assay, HTRF KinEase (Example C-2); format: biochemical
Sequence of Human MER (residues 528-999) (Q12866 528-999): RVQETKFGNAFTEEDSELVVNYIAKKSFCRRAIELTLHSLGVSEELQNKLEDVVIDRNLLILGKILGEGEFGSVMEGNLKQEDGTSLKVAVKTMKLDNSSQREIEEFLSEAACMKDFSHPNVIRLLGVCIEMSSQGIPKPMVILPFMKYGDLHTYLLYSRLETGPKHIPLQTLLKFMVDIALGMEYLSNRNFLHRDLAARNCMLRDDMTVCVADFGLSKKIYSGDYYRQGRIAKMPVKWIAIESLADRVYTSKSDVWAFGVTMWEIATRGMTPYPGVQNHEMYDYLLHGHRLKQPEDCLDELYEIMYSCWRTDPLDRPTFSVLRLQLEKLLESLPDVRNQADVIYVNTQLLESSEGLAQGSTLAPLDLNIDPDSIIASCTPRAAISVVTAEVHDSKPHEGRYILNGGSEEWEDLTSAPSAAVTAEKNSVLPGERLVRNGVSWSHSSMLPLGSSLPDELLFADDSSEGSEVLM
Summary of the method: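 Recombinant MER 528-999 (1 ng/well) in buffer with 5 mM MgCl2 and 1 mM DTT was reacted with biotinylated peptide and ATP at Km (40 μM) for 60 min at room temperature. EDTA stop with SA-XL665 and Eu3+ TK antibody, then 665/620 nm HTRF read; IC50 from 4-parameter fit.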

[4] = biological target: Human KDR (residues 790-1356) (Homo sapiens (Human), UniProt P35968); test: Human KDR kinase assay, HTRF KinEase (Example B-2); format: biochemical
Sequence of Human KDR (residues 790-1356) (P35968 790-1356): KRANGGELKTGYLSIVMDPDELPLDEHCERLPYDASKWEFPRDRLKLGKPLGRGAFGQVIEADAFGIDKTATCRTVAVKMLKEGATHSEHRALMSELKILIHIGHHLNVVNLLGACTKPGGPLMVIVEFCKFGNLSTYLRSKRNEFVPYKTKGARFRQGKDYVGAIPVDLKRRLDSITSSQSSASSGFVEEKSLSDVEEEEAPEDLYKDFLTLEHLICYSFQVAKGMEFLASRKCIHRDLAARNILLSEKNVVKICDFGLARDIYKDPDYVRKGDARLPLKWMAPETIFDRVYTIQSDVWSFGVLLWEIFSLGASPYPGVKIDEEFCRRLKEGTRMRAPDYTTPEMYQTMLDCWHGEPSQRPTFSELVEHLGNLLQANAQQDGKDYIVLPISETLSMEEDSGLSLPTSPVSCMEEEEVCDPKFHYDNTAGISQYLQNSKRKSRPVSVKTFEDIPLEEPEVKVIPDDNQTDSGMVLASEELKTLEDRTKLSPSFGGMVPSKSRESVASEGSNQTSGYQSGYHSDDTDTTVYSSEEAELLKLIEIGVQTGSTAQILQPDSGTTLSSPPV
Procedure: Kinase activity and compound inhibition were also investigated using the HTRF® KinEase assay (Cisbio Cat #62TKOPEB) per manufacturer's instructions. In short, compounds were delivered in 300 nL volumes at 10 different concentrations in DMSO (3% final) to empty 384-well assay plates (Corning cat #3824). A mixture of enzyme, […] biotynlated peptide substrate, and buffer in 10 μL volume was added. The assay was started upon the addition of ATP (at Km). The 10 μL reaction was incubated at room temperature. The reaction was stopped upon the addition of detection buffer containing streptavidin-XL665 ([…]) and TK antibody-Eu3+([…]). After a 60 min incubation at room temperature, the fluorescence at 665 nm and 620 nm was read on an Envision microplate reader (Perkin Elmer).
Kinase activity normalized to DMSO (100% activity) and reference compound at […] and (0% activity) was calculated using the fluorescence ratio […]. IC50 values were calculated by nonlinear regression analysis using a 4-parameter logistic curve fit in ActivityBase XE (IDBS).
Example B-2: Human KDR (residues 790-1356; CarnaBio, 0.1 ng/well) was also incubated with enzymatic buffer (Cisbio) supplemented with 5 mM MgCl2, 1 mM MnCl2, and 1 mM DTT. The mixture was added to the pre-plated compounds. The reaction was initiated upon addition of ATP at Km (4.0 μM). The reaction was incubated at room temperature for 40 min and stopped upon the addition of SA-XL665 and TK-antibody both diluted in EDTA-containing kinase detection buffer (Cisbio). The kinase activity was calculated as stated above and the IC50 values were reported.

[5] = biological target: Met (phospho-Met, HGF-stimulated PC-3 prostate cancer cells) (Homo sapiens (Human), UniProt P08581); test: Met autophosphorylation ELISA in PC-3 cells (Example F); format: cell-based; settings: cellular activity; Met autophosphorylation ELISA in PC-3 cells; read-out: c-Met IC50
Sequence of Met (phospho-Met, HGF-stimulated PC-3 prostate cancer cells) (P08581 25-1390): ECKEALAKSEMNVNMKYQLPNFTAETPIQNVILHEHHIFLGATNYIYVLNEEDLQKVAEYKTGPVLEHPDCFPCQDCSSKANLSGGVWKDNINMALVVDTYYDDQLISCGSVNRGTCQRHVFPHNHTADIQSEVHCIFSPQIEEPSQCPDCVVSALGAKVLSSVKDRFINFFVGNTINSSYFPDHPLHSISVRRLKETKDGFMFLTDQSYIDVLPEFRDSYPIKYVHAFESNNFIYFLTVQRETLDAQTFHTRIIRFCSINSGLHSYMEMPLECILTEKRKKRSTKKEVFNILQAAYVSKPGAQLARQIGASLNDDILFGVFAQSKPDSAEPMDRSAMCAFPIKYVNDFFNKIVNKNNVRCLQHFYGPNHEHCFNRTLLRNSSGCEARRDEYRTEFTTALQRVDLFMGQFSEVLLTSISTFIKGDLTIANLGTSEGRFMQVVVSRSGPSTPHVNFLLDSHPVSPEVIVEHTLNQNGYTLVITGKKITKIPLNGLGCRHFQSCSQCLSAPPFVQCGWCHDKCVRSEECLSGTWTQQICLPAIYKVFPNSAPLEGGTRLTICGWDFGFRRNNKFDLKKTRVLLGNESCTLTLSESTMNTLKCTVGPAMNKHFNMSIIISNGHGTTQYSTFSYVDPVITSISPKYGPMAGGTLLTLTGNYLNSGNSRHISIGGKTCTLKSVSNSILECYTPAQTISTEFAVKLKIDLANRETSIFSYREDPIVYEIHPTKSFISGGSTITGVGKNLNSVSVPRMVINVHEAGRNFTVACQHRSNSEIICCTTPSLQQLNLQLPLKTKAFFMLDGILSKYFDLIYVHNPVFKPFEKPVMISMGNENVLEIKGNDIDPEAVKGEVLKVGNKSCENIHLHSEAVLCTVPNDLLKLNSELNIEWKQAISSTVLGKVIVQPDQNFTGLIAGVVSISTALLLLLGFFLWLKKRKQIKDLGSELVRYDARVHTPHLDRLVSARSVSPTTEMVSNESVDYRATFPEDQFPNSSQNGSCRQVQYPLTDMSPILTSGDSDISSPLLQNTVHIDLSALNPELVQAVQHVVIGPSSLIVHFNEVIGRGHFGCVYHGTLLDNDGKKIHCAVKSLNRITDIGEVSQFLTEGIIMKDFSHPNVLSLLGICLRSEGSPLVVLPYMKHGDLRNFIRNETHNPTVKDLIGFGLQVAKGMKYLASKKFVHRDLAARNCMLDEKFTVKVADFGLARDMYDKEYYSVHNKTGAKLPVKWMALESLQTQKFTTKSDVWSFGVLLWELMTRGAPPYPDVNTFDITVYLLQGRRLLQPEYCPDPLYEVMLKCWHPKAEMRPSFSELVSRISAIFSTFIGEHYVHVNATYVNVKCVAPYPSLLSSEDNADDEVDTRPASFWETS
Summary of the method: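 PC-3 cells, serum-starved 3 h, were treated with compounds (8-point dose curve, 0.3% DMSO final) for 1 h, then stimulated with 100 ng/mL recombinant human HGF for 10 min. Lysate phospho-Met (panTyr) was quantified by sandwich ELISA; IC50 from 4-parameter logistic fit.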

[6] = protocol of Example D-2 (other compounds)
[7] = protocol of Example C-2 (other compounds)
[8] = protocol of Example B-2 (other compounds)

COc1cnc2c(Oc3ccc(NC(=O)c4cn(C(C)(C)C)c(C)c(-c5ccc(F)cc5)c4=O)cc3)ccnc2c1 [Compound 165, 1-tert-Butyl-5-(4-fluorophenyl)-N-[4-[(7-methoxy-1,5-naphthyridin-4-yl)oxy]phenyl]-6-methyl-4-oxopyridine-3-carboxamide]
IC50 [1]: < 100 nM
IC50 [2, 6]: < 100 nM
IC50 [3, 7]: < 100 nM
IC50 [4, 8]: > 300 nM

COc1cc2nccc(Oc3ccc(NC(=O)c4cn(-c5cnn(C)c5)c(C)c(-c5ccc(F)cc5)c4=O)cc3)c2nc1OC [Compound 141, N-[4-[(6,7-Dimethoxy-1,5-naphthyridin-4-yl)oxy]phenyl]-5-(4-fluorophenyl)-6-methyl-1-(1-methylpyrazol-4-yl)-4-oxopyridine-3-carboxamide]
IC50 [1]: < 100 nM
IC50 [5]: < 100 nM
IC50 [2, 6]: < 100 nM
IC50 [3, 7]: < 100 nM
IC50 [4, 8]: > 300 nM

COc1cc2nccc(Oc3ccc(NC(=O)c4cn(C(C)C)c(C)c(-c5ccc(F)cc5)c4=O)cc3F)c2nc1N(C)C [Compound 583, N-[4-[[6-(Dimethylamino)-7-methoxy-1,5-naphthyridin-4-yl]oxy]-3-fluorophenyl]-5-(4-fluorophenyl)-6-methyl-4-oxo-1-propan-2-ylpyridine-3-carboxamide]
IC50 ([2]; protocol of Example D-2): < 100 nM
IC50 ([3]; protocol of Example C-2): < 100 nM
IC50 ([4]; protocol of Example B-2): > 300 nM

COc1cc2nccc(Oc3ccc(NC(=O)c4c(C)nc(OC)c(-c5ccc(F)cc5)c4OC)cc3F)c2nc1OC [Compound 444, N-[4-[(6,7-dimethoxy-1,5-naphthyridin-4-yl)oxy]-3-fluorophenyl]-5-(4-fluorophenyl)-4,6-dimethoxy-2-methylpyridine-3-carboxamide]
IC50 [2, 6]: > 300 nM
IC50 [3, 7]: > 300 nM
IC50 [4, 8]: > 300 nM

COc1nc2c(Oc3ccc(NC(=O)c4cnc(C)c(-c5ccc(F)cc5)c4O)cc3F)ccnc2cc1C(C)C [Compound 590, N-[3-Fluoro-4-[(6-methoxy-7-propan-2-yl-1,5-naphthyridin-4-yl)oxy]phenyl]-5-(4-fluorophenyl)-4-hydroxy-6-methylpyridine-3-carboxamide]
IC50 ([2]; protocol of Example D-2): > 300 nM
IC50 ([3]; protocol of Example C-2): < 100 nM
IC50 ([4]; protocol of Example B-2): > 300 nM

COc1cc2nccc(Oc3ccc(NC(=O)c4cc(Br)c(C)n(-c5ccc(F)cc5)c4=O)cc3F)c2nc1OC [Compound 366, 5-bromo-N-[4-[(6,7-dimethoxy-1,5-naphthyridin-4-yl)oxy]-3-fluorophenyl]-1-(4-fluorophenyl)-6-methyl-2-oxopyridine-3-carboxamide]
IC50 [1]: < 100 nM
IC50 [5]: < 100 nM
IC50 [2, 6]: 100 to 300 nM
IC50 [3, 7]: < 100 nM
IC50 [4, 8]: 100 to 300 nM

COc1nc2c(Oc3ccc(NC(=O)c4c(C)nc(C)c(-c5ccc(F)cc5)c4O)cc3F)ccnc2cc1C(C)C [Compound 592, N-[3-Fluoro-4-[(6-methoxy-7-propan-2-yl-1,5-naphthyridin-4-yl)oxy]phenyl]-5-(4-fluorophenyl)-4-hydroxy-2,6-dimethylpyridine-3-carboxamide]
IC50 ([2]; protocol of Example D-2): > 300 nM
IC50 ([3]; protocol of Example C-2): < 100 nM
IC50 ([4]; protocol of Example B-2): > 300 nM

C=C(C)c1cc2nccc(Oc3ccc(NC(=O)c4cnc(C)c(-c5ccc(F)cc5C)c4O)cc3F)c2nc1OC [Compound 449, N-[3-fluoro-4-[(6-methoxy-7-prop-1-en-2-yl-1,5-naphthyridin-4-yl)oxy]phenyl]-5-(4-fluoro-2-methylphenyl)-4-hydroxy-6-methylpyridine-3-carboxamide]
IC50 ([2]; protocol of Example D-2): > 300 nM
IC50 ([3]; protocol of Example C-2): < 100 nM
IC50 ([4]; protocol of Example B-2): > 300 nM

COc1ccc2nccc(Oc3ccc(NC(=O)c4c[nH]c(=O)n(-c5ccc(F)cc5)c4=O)cc3F)c2n1 [Compound 103, N-[3-Fluoro-4-[(6-methoxy-1,5-naphthyridin-4-yl)oxy]phenyl]-3-(4-fluorophenyl)-2,4-dioxo-1H-pyrimidine-5-carboxamide]
IC50 [2, 6]: < 100 nM
IC50 [3, 7]: < 100 nM
IC50 [4, 8]: > 300 nM

CCOc1nc(C)c(-c2ccc(F)cc2)c(O)c1C(=O)Nc1ccc(Oc2ccnc3cc(OC)c(OC)nc23)c(F)c1 [Compound 365, N-[4-[(6,7-dimethoxy-1,5-naphthyridin-4-yl)oxy]-3-fluorophenyl]-2-ethoxy-5-(4-fluorophenyl)-4-hydroxy-6-methylpyridine-3-carboxamide]
IC50 [2, 6]: > 300 nM
IC50 [3, 7]: 100 to 300 nM
IC50 [4, 8]: > 300 nM

Cc1c(-c2ccc(F)cc2)c(=O)c(C(=O)Nc2ccc(Oc3ccnc4cc(C(F)(F)F)cnc34)c(F)c2)cn1C(C)C [Compound 152, 5-(4-Fluorophenyl)-N-[3-fluoro-4-[[7-(trifluoromethyl)-1,5-naphthyridin-4-yl]oxy]phenyl]-6-methyl-4-oxo-1-propan-2-ylpyridine-3-carboxamide]
IC50 [2, 6]: > 300 nM
IC50 [3, 7]: > 300 nM
IC50 [4, 8]: > 300 nM

C=C(C)c1cc2nccc(Oc3ccc(NC(=O)c4c(C)nc(C)c(-c5ccc(F)cc5)c4O)cc3F)c2nc1OC [Compound 453, N-[3-fluoro-4-[(6-methoxy-7-prop-1-en-2-yl-1,5-naphthyridin-4-yl)oxy]phenyl]-5-(4-fluorophenyl)-4-hydroxy-2,6-dimethylpyridine-3-carboxamide]
IC50 ([2]; protocol of Example D-2): > 300 nM
IC50 ([3]; protocol of Example C-2): < 100 nM
IC50 ([4]; protocol of Example B-2): 100 to 300 nM

COc1ccc(-c2cn(C)cc(C(=O)Nc3ccc(Oc4ccnc5cc(OC)c(OC)nc45)c(F)c3)c2=O)cc1 [Compound 34, N-[4-[(6,7-Dimethoxy-1,5-naphthyridin-4-yl)oxy]-3-fluorophenyl]-5-(4-methoxyphenyl)-1-methyl-4-oxopyridine-3-carboxamide hydrochloride]
IC50 [2, 6]: 100 to 300 nM
IC50 [3, 7]: < 100 nM
IC50 [4, 8]: < 100 nM

COc1ccc2nccc(Oc3ccc(NC(=O)c4c[nH]c(=O)n(-c5ccc(F)cc5)c4=O)cc3)c2n1 [Compound 339, 3-(4-fluorophenyl)-N-[4-[(6-methoxy-1,5-naphthyridin-4-yl)oxy]phenyl]-2,4-dioxo-1H-pyrimidine-5-carboxamide]
IC50 [2, 6]: 100 to 300 nM
IC50 [3, 7]: 100 to 300 nM
IC50 [4, 8]: > 300 nM

COc1cc2nccc(Oc3ccc(NC(=O)c4cnc(NC(=O)OC(C)(C)C)n(-c5ccc(F)cc5)c4=O)cc3F)c2nc1OC [Compound 344, tert-butyl N-[5-[[4-[(6,7-dimethoxy-1,5-naphthyridin-4-yl)oxy]-3-fluorophenyl]icarbamoyl]-1-(4-fluorophenyl)-6-oxopyrimidin-2-yl]carbamate]
IC50 [2, 6]: 100 to 300 nM
IC50 [3, 7]: < 100 nM
IC50 [4, 8]: 100 to 300 nM

CC(C)n1cc(C(=O)Nc2ccc(Oc3ccnc4cc(F)cnc34)c(F)c2)c(=O)c(-c2ccc(F)cc2)c1 [Compound 161, N-[3-Fluoro-4-[(7-fluoro-1,5-naphthyridin-4-yl)oxy]phenyl]-5-(4-fluorophenyl)-4-oxo-1-propan-2-ylpyridine-3-carboxamide]
IC50 [2, 6]: < 100 nM
IC50 [3, 7]: < 100 nM
IC50 [4, 8]: < 100 nM

COc1cc2nccc(Oc3ccc(NC(=O)C4=C5CCCN5CC(c5ccc(F)cc5)C4=O)cc3F)c2nc1OC (single isomer, unassigned; enantiomer 2) [Compound 375, N-[4-[(6,7-dimethoxy-1,5-naphthyridin-4-yl)oxy]-3-fluorophenyl]-6-(4-fluorophenyl)-7-oxo-2,3,5,6-tetrahydro-1H-indolizine-8-carboxamide, enantiomer 2]
IC50 [2, 6]: < 100 nM
IC50 [3, 7]: < 100 nM
IC50 [4, 8]: > 300 nM
